# Measured values: US20240018125A1, “CYCLIC ISOTHIOUREA DERIVATIVES AS CXCR4 MODULATORS” (ERMIUM THERAPEUTICS, priority 2020, published 2024)
# Where a name gives a salt, the structure may show the parent alone.
# Tested on: not given
# Assay: not given
# Settings: not given
row,melting point [°C],SMILES
1,238 to 240,"COc1cc2nc3scc(CSC4=NCc5ccccc5N4)n3c2cc1OC.Cl [Example 97, 3-(((3,4-dihydroquinazolin-2-yl)thio)methyl)-6,7-dimethoxybenzo[4,5]imidazo[2,1-b]thiazole hydrochloride]"
2,195 to 203,"c1ccc2c(c1)CN=C(SCCN1CCCC1)N2 (as salt: hydrochloride) [Example 77, 2-((2-(pyrrolidin-1-yl)ethyl)thio)-1,4-dihydroquinazoline dihydrochloride]"
3,80 to 88,"CC1N=C(SCC2=CSC3=NC(Cc4ccccc4)CN23)Nc2ccccc21 (stereo not drawn) (as salt: hydrochloride) [Example 113, 6-benzyl-3-(((4-methyl-1,4-dihydroquinazolin-2-yl)thio)methyl)-5,6-dihydroimidazo[2,1-b]thiazole dihydrochloride]"
4,155 to 160,"Fc1ccc(CC2CN3C(CSC4=NCc5ccccc5N4)=CSC3=N2)cc1 (stereo not drawn) (as salt: hydrochloride) [Example 196, 3-(((1,4-dihydroquinazolin-2-yl)thio)methyl)-6-(4-fluorobenzyl)-5,6-dihydroimidazo[2,1-b]thiazole dihydrochloride]"
5,206 to 212,"CCCCN1CCN=C1SCC1=CSC2=NCc3ccccc3CN12 (as salt: hydrochloride) [Example 37, 3-(((1-butyl-4,5-dihydro-1H-imidazol-2-yl)thio)methyl)-5,10-dihydrobenzo[e]thiazolo[3,2-a][1,3]diazepine dihydrochloride]"
6,> 250,"CC1(C)CN=C(SCC2=CSC3=Nc4ccccc4CN23)N1 (as salt: hydrochloride) [Example 5, 3-(((5,5-dimethyl-4,5-dihydro-1H-imidazol-2-yl)thio)methyl)-5H-thiazolo[2,3-b]quinazoline dihydrochloride]"
7,175 to 185,"C1=C(CSC2=NCc3ccccc3N2)N2C(=N[C@H](c3ccccc3)[C@H]2c2ccccc2)S1 (relative stereo) (as salt: hydrochloride) [Example 16, trans-3-(((3,4-dihydroquinazolin-2-yl)thio)methyl)-5,6-diphenyl-5,6-dihydroimidazo[2,1-b]thiazole dihydrochloride]"
8,136 to 142,"C1=C(CSC2=NCc3ccccc3N2)N2CC(CCc3ccccc3)N=C2S1 (stereo not drawn) (as salt: hydrochloride) [Example 126, 3-(((1,4-dihydroquinazolin-2-yl)thio)methyl)-6-phenethyl-5,6-dihydroimidazo[2,1-b]thiazole dihydrochloride]"
9,150 to 164,"COc1ccc(C[C@@H]2CN3C(CSC4=NCc5ccccc5N4)=CSC3=N2)cc1 (as salt: hydrochloride) [Example 124, (R)-3-(((1,4-dihydroquinazolin-2-yl)thio)methyl)-6-(4-methoxybenzyl)-5,6-dihydroimidazo[2,1-b]thiazole dihydrochloride]"
10,> 250,Cl.c1ccc2c(c1)CN=C(SCc1csc3nc4ccccc4n13)N2 [Example 96]
11,> 250,"C1=C(CSC2=NCCc3ccccc3N2)N2Cc3ccccc3CN=C2S1 (as salt: hydrochloride) [Example 25, 3-(((4,5-dihydro-1H-benzo[d][1,3]diazepin-2-yl)thio)methyl)-5,10-dihydrobenzo[e]thiazolo[3,2-a][1,3]diazepine dihydrochloride]"
12,190 to 194,"CC1(C)N=C(SCC2=CSC3=Nc4cccc(F)c4CN23)Nc2ccccc21 (as salt: hydrochloride) [Example 73, 3-(((4,4-dimethyl-1,4-dihydroquinazolin-2-yl)thio)methyl)-6-fluoro-5H-thiazolo[2,3-b]quinazoline dihydrochloride]"
13,134 to 138,"c1ccc2c(c1)CN(CCSC1=NCc3ccccc3N1)C2 (as salt: hydrochloride) [Example 71, 2-((2-(isoindolin-2-yl)ethyl)thio)-3,4-dihydroquinazoline dihydrochloride]"
14,65 to 85,"c1ccc(CC2CN=C(SCCN3CCCCCC3)N2)cc1 (stereo not drawn) (as salt: hydrochloride) [Example 58, 1-(2-((5-benzyl-4,5-dihydro-1H-imidazol-2-yl)thio)ethyl)azepane dihydrochloride]"
15,173 to 180,"COc1ccc(CC2(C)CN=C(SCC3=CSC4=NCc5ccccc5CN34)N2)cc1 (stereo not drawn) (as salt: hydrochloride) [Example 34, 3-(((5-(4-methoxybenzyl)-5-methyl-4,5-dihydro-1H-imidazol-2-yl)thio)methyl)-5,10-dihydrobenzo[e]thiazolo[3,2-a][1,3]diazepine dihydrochloride]"
16,70 to 80,"CN1CCCC1CSC1=NCC(Cc2ccccc2)N1 (stereo not drawn) (as salt: hydrochloride) [Example 53, 5-benzyl-2-(((1-methylpyrrolidin-2-yl)methyl)thio)-4,5-dihydro-1H-imidazole dihydrochloride]"

row,melting point [°C],SMILES
1,125 to 130,"Fc1ccc2c(c1)NC(SCC1=CSC3=NC(Cc4ccccc4)CN13)=NC2 (stereo not drawn) (as salt: hydrochloride) [Example 89, 6-benzyl-3-(((7-fluoro-1,4-dihydroquinazolin-2-yl)thio)methyl)-5,6-dihydroimidazo[2,1-b]thiazole dihydrochloride]"
2,142 to 148,"C1=C(CSC2=NCc3ccccc3N2)N2CC(Cc3ccccc3)N=C2S1 (stereo not drawn) (as salt: hydrochloride) [Example 65, 6-benzyl-3-(((3,4-dihydroquinazolin-2-yl)thio)methyl)-5,6-dihydroimidazo[2,1-b]thiazole dihydrochloride]"
3,136 to 145,"Cc1cccc(CC2CN3C(CSC4=NCc5ccccc5N4)=CSC3=N2)c1 (stereo not drawn) (as salt: hydrochloride) [Example 112, 3-(((1,4-dihydroquinazolin-2-yl)thio)methyl)-6-(3-methylbenzyl)-5,6-dihydroimidazo[2,1-b]thiazole dihydrochloride]"
4,245 to 249,"CC1(C)CN2C(CSC3=NCc4ccccc4N3)=CSC2=N1 (as salt: hydrochloride) [Example 3, 3-(((3,4-dihydroquinazolin-2-yl)thio)methyl)-6,6-dimethyl-5,6-dihydroimidazo[2,1-b]thiazole dihydrochloride]"
5,178 to 185,"C1=C(CSC2=N[C@@H](c3ccccc3)[C@H](c3ccccc3)N2)N2Cc3ccccc3CN=C2S1 (as salt: hydrochloride) [Example 24, 3-((((4S,5S)-4,5-diphenyl-4,5-dihydro-1H-imidazol-2-yl)thio)methyl)-5,10-dihydrobenzo[e]thiazolo[3,2-a][1,3]diazepine dihydrochloride]"
6,193 to 203,"Fc1cccc2c1CN1C(CSC3=NCc4ccccc4N3)=CSC1=N2 (as salt: hydrochloride) [Example 18, 3-(((3,4-dihydroquinazolin-2-yl)thio)methyl)-6-fluoro-5H-thiazolo[2,3-b]quinazoline dihydrochloride]"
7,50 to 53,"C1=C(CSC2=NCCc3ccccc3N2)N2CC(Cc3ccccc3)N=C2S1 (stereo not drawn) (as salt: hydrochloride) [Example 88, 6-benzyl-3-(((4,5-dihydro-1H-benzo[d][1,3]diazepin-2-yl)thio)methyl)-5,6-dihydroimidazo[2,1-b]thiazole dihydrochloride]"
8,177 to 182,"IC1=C(CSC2=NCc3ccccc3N2)N2CC(Cc3ccccc3)N=C2S1 (stereo not drawn) (as salt: hydrochloride) [Example 110, 6-benzyl-3-(((1,4-dihydroquinazolin-2-yl)thio)methyl)-2-iodo-5,6-dihydroimidazo[2,1-b]thiazole dihydrochloride]"
9,> 250,"C1=C(CSC2=N[C@@H]3CCCC[C@H]3N2)N2Cc3ccccc3N=C2S1 (as salt: hydrochloride) [Example 32, 3-((((3aR,7aR)-3a,4,5,6,7,7a-hexahydro-1H-benzo[d]imidazol-2-yl)thio)methyl)-5H-thiazolo[2,3-b]quinazoline dihydrochloride]"
10,> 240,"Fc1cccc2c1CN=C(SCC1=CSC3=NCc4ccccc4CN13)N2 (as salt: hydrochloride) [Example 23, 3-(((5-fluoro-1,4-dihydroquinazolin-2-yl)thio)methyl)-5,10-dihydrobenzo[e]thiazolo[3,2-a][1,3]diazepine dihydrochloride]"
11,180 to 190,"C1=C(CSC2=NCc3ccccc3N2)N2Cc3cccnc3N=C2S1 (as salt: hydrochloride) [Example 28, 3-(((3,4-dihydroquinazolin-2-yl)thio)methyl)-5H-pyrido[2,3-d]thiazolo[3,2-a]pyrimidine trihydrochloride]"
12,94 to 108,"c1ccc(C2CCCN2CCSC2=NCc3ccccc3N2)cc1 (stereo not drawn) (as salt: hydrochloride) [Example 128, 2-((2-(2-phenylpyrrolidin-1-yl)ethyl)thio)-1,4-dihydroquinazoline dihydrochloride]"
13,189 to 193,"C1=C(CSC2=NCc3ccccc3N2)N2Cc3ccccc3CN=C2S1 (as salt: hydrochloride) [Example 11, 3-(((3,4-dihydroquinazolin-2-yl)thio)methyl)-5,10-dihydrobenzo[e]thiazolo[3,2-a][1,3]diazepine dihydrochloride]"
14,235 to 240,COc1cc2nc3n(c2cc1OC)C(O)(CSC1=NCc2ccccc2N1)CS3.Cl (stereo not drawn)
15,> 250,"C1=C(CSC2=NCc3ccccc3N2)N2Cc3ccccc3N=C2S1 (as salt: hydrochloride) [Example 12, 3-(((1,4-dihydroquinazolin-2-yl)thio)methyl)-5H-thiazolo[2,3-b]quinazoline dihydrochloride]"
16,235 to 242,"C1=C(CSC2=NCc3ccccc3N2)N2CC(C3CCCCC3)N=C2S1 (stereo not drawn) (as salt: hydrochloride) [Example 15, 6-cyclohexyl-3-(((3,4-dihydroquinazolin-2-yl)thio)methyl)-5,6-dihydroimidazo[2,1-b]thiazole dihydrochloride]"

# Tested on: peripheral blood mononuclear cells (PBMCs) from healthy donors
# Assay: IFN production by R848-activated PBMCs, quantified with twINNE luciferase reporter cell line
# Format: cell-based, human
# Settings: Homo sapiens, PBMC; read-out: IC50 of anti-inflammatory activity (IFN production by activated PBMCs)
# Procedure, shortened: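 Functional IFN was quantified by luciferase output from the twINNE ISRE-reporter line after 24 h on conditioned supernatants. Those supernatants came from human PBMCs (4.10^6/mL) pre-treated with compound and then stimulated for 24 h with 5 μg/mL resiquimod. IC50s were fitted by nonlinear variable-slope regression.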
row,SMILES,IC50 [µM]
1,"COc1cc2nc3scc(CSC4=NCc5ccccc5N4)n3c2cc1OC.Cl [Example 97, 3-(((3,4-dihydroquinazolin-2-yl)thio)methyl)-6,7-dimethoxybenzo[4,5]imidazo[2,1-b]thiazole hydrochloride]",> 32
